In ChEMBL document CHEMBL1201862, “PubChem BioAssay data set” (2004):
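Each compound was tested at five concentrations against cells in 96-well plates for 48 hours. GI50 marks 50% less growth.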 Calls of active or inactive are those of the source. No stated cut-off is given here; in the data, active = GI50 up to about 1.1 µM and inactive = higher.

Key:
Test in all cases: NCI tumour cell line growth inhibition, 48 h
[1] = system: 786-0
[2] = system: A498
[3] = system: A549
[4] = system: ACHN
[5] = system: HCC 2998
[6] = system: HCT-15
[7] = system: HT-29
[8] = system: LOX IMVI
[9] = system: MDA-MB-231
[10] = system: MDA-MB-435
[11] = system: MDA-N
[12] = system: NCI-H226
[13] = system: RPMI-8226
[14] = system: SF-295
[15] = system: SK-MEL-2
[16] = system: SW-620
[17] = system: U-251
[18] = system: UACC-257
[19] = system: UO-31
[20] = system: Malme-3M

SMILES	GI50 [1]	GI50 [2]	GI50 [3]	GI50 [4]	GI50 [5]	GI50 [6]	GI50 [7]	GI50 [8]	GI50 [9]	GI50 [10]	GI50 [11]	GI50 [12]	GI50 [13]	GI50 [14]	GI50 [15]	GI50 [16]	GI50 [17]	GI50 [18]	GI50 [19]	GI50 [20]
O=c1[nH]c(=O)n(C2CC(O)C(COP(=O)(O)OC3CC(n4cc(F)c(=O)[nH]c4=O)OC3COP(=O)(O)OC3CC(n4cc(F)c(=O)[nH]c4=O)OC3COP(=O)(O)OC3CC(n4cc(F)c(=O)[nH]c4=O)OC3COP(=O)(O)OC3CC(n4cc(F)c(=O)[nH]c4=O)OC3COP(=O)(O)OC3CC(n4cc(F)c(=O)[nH]c4=O)OC3COP(=O)(O)OC3CC(n4cc(F)c(=O)[nH]c4=O)OC3COP(=O)(O)OC3CC(n4cc(F)c(=O)[nH]c4=O)OC3COP(=O)(O)OC3CC(n4cc(F)c(=O)[nH]c4=O)OC3COP(=O)(O)OC3CC(n4cc(F)c(=O)[nH]c4=O)OC3CO)O2)cc1F (stereo not drawn)	< 0.005 µM (active)	< 0.005 µM (active)	< 0.005 µM (active)	< 0.005 µM (active)	0.0234 µM (active)	0.309 µM	0.481 µM (active)	< 0.005 µM (active)	9.33 µM (inactive)	0.422 µM (active)	0.0685 µM (active)	0.194 µM (active)	0.232 µM (active)	< 0.005 µM (active)	3.07 µM (inactive)	> 50 µM (inactive)	0.115 µM (active)	0.578 µM (active)	< 0.005 µM (active)	
COc1ccc(N2C(=O)C3c4[nH]c5ccc(C)cc5c4C4CCC(C(C)C)CC4C3C2=O)cc1 (stereo not drawn)	> 100 µM (inactive)	> 100 µM (inactive)	> 100 µM (inactive)	> 100 µM (inactive)	> 100 µM (inactive)	> 100 µM	> 100 µM (inactive)	> 100 µM (inactive)	> 100 µM (inactive)	> 100 µM (inactive)	> 100 µM (inactive)	> 100 µM (inactive)	> 100 µM (inactive)	> 100 µM (inactive)	> 100 µM (inactive)	> 100 µM (inactive)	47.6 µM (inactive)	> 100 µM (inactive)	> 100 µM (inactive)	
C/C=C/C(C#N)(Cc1ccccc1)OP1(=O)OC(c2ccccc2)C(C)N1C (stereo not drawn)	> 100 µM (inactive)	69.3 µM (inactive)	66.4 µM (inactive)	84.1 µM (inactive)	81.3 µM (inactive)	79.6 µM	69.2 µM (inactive)	44.1 µM (inactive)	> 100 µM (inactive)	48.4 µM (inactive)	88.1 µM (inactive)		33 µM (inactive)	49.1 µM (inactive)	> 100 µM (inactive)	> 100 µM (inactive)	88.5 µM (inactive)	65.8 µM (inactive)	55.3 µM (inactive)	> 100 µM (inactive)
CC1CC(C)C(C#N)N(C)c2ccccc21 (stereo not drawn)	> 100 µM (inactive)	> 100 µM (inactive)	> 100 µM (inactive)	> 100 µM (inactive)	> 100 µM (inactive)	> 100 µM	78.3 µM (inactive)		> 100 µM (inactive)	69.2 µM (inactive)	> 100 µM (inactive)	> 100 µM (inactive)	37.2 µM (inactive)	> 100 µM (inactive)	> 100 µM (inactive)	> 100 µM (inactive)		> 100 µM (inactive)	> 100 µM (inactive)	> 100 µM (inactive)
O=C1CCSc2nc(-c3ccc4c(c3)OCO4)nn21	> 10 µM (inactive)	> 10 µM (inactive)	> 10 µM (inactive)	> 10 µM (inactive)	> 10 µM (inactive)	> 10 µM	> 10 µM (inactive)	> 10 µM (inactive)	> 10 µM (inactive)	> 10 µM (inactive)	> 10 µM (inactive)	> 10 µM (inactive)	> 10 µM (inactive)	> 10 µM (inactive)	> 10 µM (inactive)	> 10 µM (inactive)	> 10 µM (inactive)	> 10 µM (inactive)		> 10 µM (inactive)
Cc1c(-c2ccccc2)oc(=O)c2ccccc12	24.2 µM (inactive)	> 10 µM (inactive)	25 µM (inactive)	26.2 µM (inactive)	18.2 µM (inactive)	19.8 µM	15.5 µM (inactive)	19.1 µM (inactive)	16.7 µM (inactive)	15.6 µM (inactive)	20 µM (inactive)	17.5 µM (inactive)	16.7 µM (inactive)	18.3 µM (inactive)	20.4 µM (inactive)		17.9 µM (inactive)	15.5 µM (inactive)	19 µM (inactive)	21.7 µM (inactive)
COC1CCC(OS(C)(=O)=O)C(C)O1 (stereo not drawn)	> 10 µM (inactive)	> 10 µM (inactive)	> 10 µM (inactive)	> 10 µM (inactive)	> 10 µM (inactive)	> 10 µM	> 10 µM (inactive)	> 10 µM (inactive)	> 10 µM (inactive)	> 10 µM (inactive)	> 10 µM (inactive)	> 10 µM (inactive)	> 10 µM (inactive)	> 10 µM (inactive)	> 10 µM (inactive)	> 10 µM (inactive)	> 10 µM (inactive)	> 10 µM (inactive)		> 10 µM (inactive)
CC1=NN(c2nc(N)nc(/C(C#N)=C\c3csc([N+](=O)[O-])c3)n2)C(C)(C)C1	17.6 µM (inactive)	> 100 µM (inactive)		35 µM (inactive)	31.7 µM (inactive)	81.3 µM	37.3 µM (inactive)	71.3 µM (inactive)	26.9 µM (inactive)	39.7 µM (inactive)	27.7 µM (inactive)	25.8 µM (inactive)	35.6 µM (inactive)	45.5 µM (inactive)	28.9 µM (inactive)	68.7 µM (inactive)	19.3 µM (inactive)	45.7 µM (inactive)	37.4 µM (inactive)	
O=C(O)[C@H]1[C@@H](C2CCCCC2)O[C@@H](C2CCCCC2)O[C@H]1C(F)(F)F	17.8 µM (inactive)	19 µM (inactive)	20.9 µM (inactive)	18.7 µM (inactive)	20 µM (inactive)	30.1 µM	22.6 µM (inactive)	19.9 µM (inactive)	18.2 µM (inactive)	19.4 µM (inactive)	16.9 µM (inactive)	21.1 µM (inactive)	23.9 µM (inactive)	19.1 µM (inactive)		19.8 µM (inactive)	18.8 µM (inactive)	32.7 µM (inactive)	26.2 µM (inactive)	28.6 µM (inactive)
COC1=CC(=O)C2=C(C1=O)[C@H]1CC[C@]3(C)C(=O)CC[C@H]3[C@@H]1CC2	24.1 µM (inactive)	> 100 µM (inactive)	45.3 µM (inactive)	27.3 µM (inactive)	54.1 µM (inactive)	27.2 µM	26.3 µM (inactive)	18.6 µM (inactive)	4 µM (inactive)	19.8 µM (inactive)	25.2 µM (inactive)	22.1 µM (inactive)	26.1 µM (inactive)	66.7 µM (inactive)	18.7 µM (inactive)	26.4 µM (inactive)	32.2 µM (inactive)	22.9 µM (inactive)	22.2 µM (inactive)	
